In US11814367B2, “Inhibitors of glycogen synthase 1 (GYS1) and methods of use thereof” (Maze Therapeutics, Inc., priority 2021, dated 2023):

Tests used:
[1] = biological target: hGYS1 enzyme (recombinant hGYS1/GN1 protein) (Homo sapiens (Human), UniProt P13807); experiment: GYS1 coupled enzyme assay (PK/LDH); format: biochemical; details: hGYS1/GN1 50 nM, UDP-Glucose 0.8 mM, G6P 1 mM; geometric mean of at least 2 runs
[2] = test system: hGYS1 enzyme / glycogen synthesis in HeLa cells; experiment: GYS1 cell based assay (glycogen synthesis, Glucose-glo); parameters: species or system human; details: 24 h incubation, 20 mM glucose, geometric mean of at least 2 runs
Procedure, shortened: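 HeLa cells starved 24 h in medium containing only 1× Glutamax were plated onto compound in medium with 20 mM glucose (1% DMSO final) for 24 h, 37 °C, 5% CO2. Acid lysates were Tris-quenched, glucoamylase-digested (pH 5.3, 1 h, 37 °C) and read by Glucose-glo luminescence. IC50 came from Hill fits, as geometric mean of ≥2 runs.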

[3] = biological target: hGYS2 enzyme (recombinant hGYS2/GN1 protein) (Homo sapiens (Human), UniProt P54840); experiment: GYS2 coupled enzyme assay (PK/LDH); format: biochemical; details: geometric mean of at least 2 assay runs on separate days, read-out: Avg_IC50
hGYS2 enzyme (recombinant hGYS2/GN1 protein), sequence (P54840 whole entry): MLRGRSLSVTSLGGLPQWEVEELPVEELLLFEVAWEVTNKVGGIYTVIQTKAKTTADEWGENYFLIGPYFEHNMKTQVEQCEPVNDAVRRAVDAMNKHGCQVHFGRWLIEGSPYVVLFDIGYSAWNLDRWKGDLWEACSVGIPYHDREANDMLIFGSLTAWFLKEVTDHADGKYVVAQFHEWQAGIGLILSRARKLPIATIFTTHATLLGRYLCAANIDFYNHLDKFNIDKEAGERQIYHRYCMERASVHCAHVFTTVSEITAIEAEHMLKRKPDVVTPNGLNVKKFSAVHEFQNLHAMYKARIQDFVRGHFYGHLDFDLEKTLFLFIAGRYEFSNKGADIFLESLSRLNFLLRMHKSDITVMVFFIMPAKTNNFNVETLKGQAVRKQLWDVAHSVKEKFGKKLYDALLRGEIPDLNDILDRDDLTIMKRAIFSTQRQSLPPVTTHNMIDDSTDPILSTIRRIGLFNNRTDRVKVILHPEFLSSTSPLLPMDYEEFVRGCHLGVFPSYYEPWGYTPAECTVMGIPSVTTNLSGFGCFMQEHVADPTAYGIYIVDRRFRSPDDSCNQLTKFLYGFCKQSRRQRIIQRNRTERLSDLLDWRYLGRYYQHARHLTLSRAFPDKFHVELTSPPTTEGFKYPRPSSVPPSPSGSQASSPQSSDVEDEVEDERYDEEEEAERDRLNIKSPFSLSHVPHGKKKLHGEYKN
hGYS2 enzyme (recombinant hGYS2/GN1 protein), sequence (P46976 whole entry partner): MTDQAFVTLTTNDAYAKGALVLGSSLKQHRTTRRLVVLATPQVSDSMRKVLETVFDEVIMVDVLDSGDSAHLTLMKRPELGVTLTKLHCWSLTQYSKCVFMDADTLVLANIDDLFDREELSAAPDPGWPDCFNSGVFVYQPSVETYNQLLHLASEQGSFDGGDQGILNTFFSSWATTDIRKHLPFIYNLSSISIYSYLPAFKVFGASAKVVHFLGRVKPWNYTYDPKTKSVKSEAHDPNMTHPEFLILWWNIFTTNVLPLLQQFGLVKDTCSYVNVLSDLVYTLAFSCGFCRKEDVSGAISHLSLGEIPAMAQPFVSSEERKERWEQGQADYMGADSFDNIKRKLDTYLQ
Procedure, shortened: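 Read-out: NADH loss at 340 nm, read each minute for 10 min, slope normalized to controls, duplicate % inhibition fit to Hill (0–100). Enzyme: 200 nM hGYS2/GN1; substrate 2 mM UDP-glucose plus 0.2% glycogen and 2 mM G6P; pH 7.5 Tris, 2.5% DMSO.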

hGYS1 enzyme (recombinant hGYS1/GN1 protein), sequence (P13807 whole entry): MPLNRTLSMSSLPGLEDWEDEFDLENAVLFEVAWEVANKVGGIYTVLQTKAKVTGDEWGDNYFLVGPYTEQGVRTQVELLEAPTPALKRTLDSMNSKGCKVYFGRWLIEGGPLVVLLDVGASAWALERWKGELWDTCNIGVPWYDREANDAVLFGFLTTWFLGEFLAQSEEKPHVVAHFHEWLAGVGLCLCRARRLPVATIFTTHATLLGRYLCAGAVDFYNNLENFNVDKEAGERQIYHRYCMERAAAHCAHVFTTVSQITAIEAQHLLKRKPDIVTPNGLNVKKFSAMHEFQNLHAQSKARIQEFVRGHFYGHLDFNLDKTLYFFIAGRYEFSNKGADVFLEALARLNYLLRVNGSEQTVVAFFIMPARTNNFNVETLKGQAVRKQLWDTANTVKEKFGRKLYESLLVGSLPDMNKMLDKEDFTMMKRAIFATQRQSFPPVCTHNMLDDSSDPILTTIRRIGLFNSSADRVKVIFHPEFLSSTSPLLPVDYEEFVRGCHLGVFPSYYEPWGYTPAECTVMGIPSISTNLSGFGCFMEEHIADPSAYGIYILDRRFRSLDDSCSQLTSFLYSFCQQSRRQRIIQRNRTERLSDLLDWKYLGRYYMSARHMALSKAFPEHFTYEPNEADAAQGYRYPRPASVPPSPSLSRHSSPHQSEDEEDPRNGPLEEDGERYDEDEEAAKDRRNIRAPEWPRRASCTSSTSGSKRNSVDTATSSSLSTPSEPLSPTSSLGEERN
hGYS1 enzyme (recombinant hGYS1/GN1 protein), sequence (P46976 whole entry partner): as the sequence (P46976 whole entry partner) above

| Compound | IC50 [1] | IC50 ([2]; Homo sapiens, HeLa, 24 h) | IC50 [3] | IC50 [2] |
| --- | --- | --- | --- | --- |
| O=C(N[C@@H](c1ccccc1)c1ccc(C2CC2)c(F)c1)[C@@H]1C[C@@H](F)CN1C(=O)Cn1cnc2ccccc21 [Compound 417, (2S,4R)-1-(2-(1H-benzo[d]imidazol-1-yl)acetyl)-N—((S)-(4-cyclopropyl-3-fluorophenyl)(phenyl)methyl)-4-fluoropyrrolidine-2-carboxamide] | 23 nM | 450 nM | > 100000 nM | – |
| Cc1cnnn1CC(=O)N1C[C@H](F)C[C@H]1C(=O)N[C@@H](c1ccccc1)c1ccc(C(C)C)c(F)c1 [Compound 374, (2S,4R)-4-fluoro-N-[(S)-[3-fluoro-4-(propan-2-yl)phenyl](phenyl)methyl]-1-[2-(5-methyl-1H-1,2,3-triazol-1-yl)acetyl]pyrrolidine-2-carboxamide] | 22 nM | 360 nM | > 100000 nM | – |
| Cc1nn(C)c(C)c1CC(=O)N1C[C@H](F)C[C@H]1C(=O)N[C@@H](c1ccccc1)c1ccc(C(C)C)c(F)c1 [Compound 351, (2S,4R)-4-fluoro-N-[(S)-[3-fluoro-4-(propan-2-yl)phenyl](phenyl)methyl]-1-[2-(1,3,5-trimethyl-1H-pyrazol-4-yl)acetyl]pyrrolidine-2-carboxamide] | 8 nM | 130 nM | > 100000 nM | – |
| CC(C)c1ccc([C@@H](NC(=O)[C@@H]2C[C@@H](F)[C@H](C)N2C(=O)Cc2cnn[nH]2)c2ccccc2)cc1F [Compound 340, (2S,4R,5S)-4-fluoro-N-[(S)-[3-fluoro-4-(propan-2-yl)phenyl](phenyl)methyl]-5-methyl-1-[2-(1H-1,2,3-triazol-5-yl)acetyl]pyrrolidine-2-carboxamide] | 18 nM | 250 nM | > 100000 nM | – |
| CC(C)c1ccc([C@@H](NC(=O)[C@@H]2C[C@@H](F)CN2C(=O)Cc2nnc(C(F)F)o2)c2ccccc2)cc1F [Compound 383, (2S,4R)-1-{2-[5-(difluoromethyl)-1,3,4-oxadiazol-2-yl]acetyl}-4-fluoro-N-[(S)-[3-fluoro-4-(propan-2-yl)phenyl](phenyl)methyl] pyrrolidine-2-carboxamide] | 27 nM | 410 nM | > 100000 nM | – |
| Cc1nn[nH]c1CC(=O)N1C[C@H](F)C[C@H]1C(=O)N[C@@H](c1ccccc1)c1ccc(C(C)C)c(F)c1 [Compound 367, (2S,4R)-4-fluoro-N-[(S)-[3-fluoro-4-(propan-2-yl)phenyl](phenyl)methyl]-1-[2-(4-methyl-1H-1,2,3-triazol-5-yl)acetyl]pyrrolidine-2-carboxamide] | 16 nM | 470 nM | > 100000 nM | – |
| CC(C)c1ccc([C@@H](NC(=O)[C@@H]2C[C@@H](F)CN2C(=O)Cc2[nH]nnc2C(F)(F)F)c2ccccc2)nc1F [Compound 403, (2S,4R)-4-fluoro-N-[(S)-[6-fluoro-5-(propan-2-yl)pyridin-2-yl](phenyl)methyl]-l-{2-[4-(trifluoromethyl)-1H-1,2,3-triazol-5-yl]acetyl}pyrrolidine-2-carboxamide] | 4 nM | 140 nM | > 100000 nM | – |
| CC(C)c1ccc([C@@H](NC(=O)[C@@H]2C[C@@H](F)CN2C(=O)Cc2n[nH]c(=O)n2C)c2ccccc2)nc1 [Compound 264, (2S,4R)-4-fluoro-1-[2-(4-methyl-5-oxo-4,5-dihydro-1H-1,2,4-triazol-3-yl)acetyl]-N-[(S)-phenyl[5-(propan-2-yl)pyridin-2-yl]methyl]pyrrolidine-2-carboxamide] | 130 nM | 4290 nM | > 100000 nM | – |
| O=C(N[C@@H](c1ccccc1)c1ccc(C2CC2)c(F)c1)[C@@H]1C[C@@H](F)CN1C(=O)Cn1nnc2ccccc21 [Compound 450, (2S,4R)-1-[2-(1H-1,2,3-benzotriazol-1-yl)acetyl]-N-[(S)-(4-cyclopropyl-3-fluorophenyl)(phenyl)methyl]-4-fluoropyrrolidine-2-carboxamide] | 94 nM | 1730 nM | > 100000 nM | – |
| CC(C)c1ccc([C@@H](NC(=O)[C@@H]2C[C@@H](F)CN2C(=O)Cc2nn(C)c(=O)[nH]2)c2ccccc2)nc1 [Compound 263, (2S,4R)-4-fluoro-1-[2-(1-methyl-5-oxo-4,5-dihydro-1H-1,2,4-triazol-3-yl)acetyl]-N-[(S)-phenyl[5-(propan-2-yl)pyridin-2-yl]methyl]pyrrolidine-2-carboxamide] | 80 nM | 1950 nM | > 100000 nM | – |

The remaining lines, values ahead:

| IC50 [1] | IC50 ([2]; Homo sapiens, HeLa, 24 h) | IC50 [3] | IC50 [2] | Compound |
| --- | --- | --- | --- | --- |
| 23 nM | 650 nM | > 100000 nM | – | Cc1nc2ccccc2n1CC(=O)N1C[C@H](F)C[C@H]1C(=O)N[C@@H](c1ccccc1)c1ccc(C2CC2)c(F)c1 [Compound 464, (2S,4R)-N-[(S)-(4-cyclopropyl-3-fluorophenyl)(phenyl)methyl]-4-fluoro-1-[2-(2-methyl-1H-1,3-benzodiazol-1-yl)acetyl]pyrrolidine-2-carboxamide] |
| 42 nM | 650 nM | > 100000 nM | – | Cc1cnc(CC(=O)N2C[C@H](F)C[C@H]2C(=O)N[C@@H](c2ccccc2)c2ccc(C3CC(F)(F)C3)c(F)c2)o1 [Compound 550, (2S,4R)-N-[(S)-[4-(3,3-difluorocyclobutyl)-3-fluorophenyl](phenyl)methyl]-4-fluoro-1-[2-(5-methyl-1,3-oxazol-2-yl)acetyl]pyrrolidine-2-carboxamide] |
| 5 nM | 450 nM | > 100000 nM | – | Cc1cc(CC(=O)N2C[C@H](F)C[C@H]2C(=O)N[C@@H](c2ccccc2)c2ccc(C3CC(F)(F)C3)c(F)n2)c[nH]c1=O [Compound 522, (2S,4R)-N-[(S)-[5-(3,3-difluorocyclobutyl)-6-fluoropyridin-2-yl](phenyl)methyl]-4-fluoro-1-[2-(5-methyl-6-oxo-1,6-dihydropyridin-3-yl)acetyl]pyrrolidine-2-carboxamide] |
| 105 nM | 1640 nM | > 100000 nM | – | CN1CCN(C(=O)OCC(=O)N2C[C@H](F)C[C@H]2C(=O)N[C@@H](c2ccccc2)c2ccc(C3(C)CC3)c(F)c2)CC1 [Compound 583, 2-[(2S,4R)-4-fluoro-2-{[(S)-[3-fluoro-4-(1-methylcyclopropyl)phenyl](phenyl)methyl]carbamoyl}pyrrolidin-1-yl]-2-oxoethyl 4-methylpiperazine-1-carboxylate] |
| 30 nM | 540 nM | > 100000 nM | – | O=C(N[C@@H](c1ccccc1)c1ccc(C2CC2)c(F)n1)[C@@H]1C[C@@H](F)CN1C(=O)Cn1cc(N2CCC2)nn1 [Compound 726, (2S,4R)-1-{2-[4-(azetidin-1-yl)-1H-1,2,3-triazol-1-yl]acetyl}-N-[(S)-(5-cyclopropyl-6-fluoropyridin-2-yl)(phenyl)methyl]-4-fluoropyrrolidine-2-carboxamide] |
| 82 nM | 1120 nM | > 100000 nM | – | O=C(N[C@@H](c1ccccc1)c1ccc(C2CC(F)(F)C2)c(F)c1)[C@@H]1C[C@@H](F)CN1C(=O)Cc1ncco1 [Compound 552, (2S,4R)-N-[(S)-[4-(3,3-difluorocyclobutyl)-3-fluorophenyl](phenyl)methyl]-4-fluoro-1-[2-(1,3-oxazol-2-yl)acetyl]pyrrolidine-2-carboxamide] |
| 10 nM | – | > 100000 nM | 150 nM | CC(C(=O)N1C[C@H](F)C[C@H]1C(=O)N[C@@H](c1ccccc1)c1ccc(C2(C)CC2)c(F)n1)n1cnc2ccccc21 (single isomer, unassigned) [Compound 586, (2S,4R)-1-((S) or (R)-2-(1H-benzo[d]imidazol-1-yl)propanoyl)-4-fluoro-N—((S)-(6-fluoro-5-(1-methylcyclopropyl)pyridin-2-yl)(phenyl)methyl)pyrrolidine-2-carboxamide] |
| 85 nM | 1800 nM | > 100000 nM | – | CC1(c2ccc([C@@H](NC(=O)[C@@H]3C[C@@H](F)CN3C(=O)CN3C(=O)Cc4ccccc43)c3ccccc3)cc2F)CC1 [Compound 576, (2S,4R)-4-fluoro-N-[(S)-[3-fluoro-4-(1-methylcyclopropyl)phenyl](phenyl)methyl]-1-[2-(2-oxo-2,3-dihydro-1H-indol-1-yl)acetyl]pyrrolidine-2-carboxamide] |
| 56 nM | 790 nM | > 100000 nM | – | Cn1nc(CC(=O)N2C[C@H](F)C[C@H]2C(=O)N[C@@H](c2ccccc2)c2ccc(C3(C)CC3)c(F)c2)c2ccccc21 [Compound 564, (2S,4R)-4-fluoro-N-[(S)-[3-fluoro-4-(1-methylcyclopropyl)phenyl](phenyl)methyl]-1-[2-(1-methyl-1H-indazol-3-yl)acetyl]pyrrolidine-2-carboxamide] |
| 7 nM | 390 nM | > 100000 nM | – | CC(C)c1ccc([C@@H](NC(=O)[C@@H]2C[C@@H](F)CN2C(=O)Cc2ccc(=O)[nH]c2)c2ccccc2)nc1F [Compound 791, (2S,4R)-4-fluoro-N-[(S)-[6-fluoro-5-(propan-2-yl)pyridin-2-yl](phenyl)methyl]-1-[2-(6-oxo-1,6-dihydropyridin-3-yl)acetyl]pyrrolidine-2-carboxamide] |
